Here are results for eight compounds from PubChem BioAssay (NCI).

Some test systems named below: CCRF-CEM leukemia; HL-60(TB) leukemia; HOP-62 NSCLC; HT29 colon; MDA-MB-231 breast; NCI-H23 lung; NCI-H522 lung; PC-3 prostate; SK-MEL-28 melanoma; SNB-75 CNS.
Common to all, as to experiment: NCI-60 cell line screen, 48 h

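48-hour exposure; five concentrations; linearly interpolated endpoints. The concentration for 50% growth inhibition is given as GI50. TGI: concentration producing complete growth inhibition.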

For the compound `CCN1CCN(Cc2ccc(NC(=O)Nc3nc4ccc(Oc5ccnc(C(=O)NC)c5)cc4s3)cc2C(F)(F)F)CC1`, the GI50 was 443 nM in the assay on CCRF-CEM leukemia; 2010 nM with HL-60(TB) leukemia; 1.95 µM in the assay on HOP-62 NSCLC; 1270 nM with HT29 colon; 1740 nM in the assay with MDA-MB-231 breast; 1830 nM with NCI-H23 lung. The GI50 was 1680 nM in the assay with NCI-H522 lung, 1.87 µM with PC-3 prostate, 1240 nM in the assay with SK-MEL-28 melanoma and 1370 nM with SNB-75 CNS. Further, the TGI turned out to be 2.47 µM in the assay with CCRF-CEM leukemia; 4.11 µM with HL-60(TB) leukemia; 3.78 µM in the assay with HOP-62 NSCLC; 3.42 µM in the assay with HT29 colon; 3.4 µM in the assay on MDA-MB-231 breast; 3.86 µM with NCI-H23 lung. For the same compound, the TGI in the assay with NCI-H522 lung worked out at 3.59 µM; in the assay with PC-3 prostate it was 3.58 µM; with SK-MEL-28 melanoma, 2.69 µM; in the assay with SNB-75 CNS, 2.73 µM.
In the case of `C=C1C(=O)O[C@H]2[C@H]1CC/C(COC(=O)NCc1ccc(OC)cc1)=C\CC[C@@]1(C)O[C@@H]21`, the GI50 in the assay on CCRF-CEM leukemia is 378 nM; in the assay on HL-60(TB) leukemia it was 813 nM; in the assay on HOP-62 NSCLC, 7.98 µM; with HT29 colon, 835 nM; with MDA-MB-231 breast, 1170 nM; in the assay with NCI-H23 lung, 1450 nM. Further, the GI50 in the assay on NCI-H522 lung is 378 nM; with PC-3 prostate, 2.61 µM; with SK-MEL-28 melanoma, 726 nM; in the assay on SNB-75 CNS it was 1000 nM. Moreover, the TGI is 2.1 µM with CCRF-CEM leukemia; 2.1 µM in the assay on HL-60(TB) leukemia; 24.1 µM in the assay on HOP-62 NSCLC; 2.78 µM with HT29 colon; 3.96 µM in the assay on MDA-MB-231 breast; 7.96 µM in the assay with NCI-H23 lung. In addition, the TGI in the assay with NCI-H522 lung came out at 1.15 µM; in the assay on PC-3 prostate, 14.3 µM; in the assay with SK-MEL-28 melanoma it was 1.7 µM; in the assay with SNB-75 CNS, 15.3 µM.
As to `CN1CCN(Cc2ccc(NC(=O)c3cncc(C#Cc4cnc(N)cc4C#N)c3)cc2C(F)(F)F)CC1`, the GI50 in the assay on CCRF-CEM leukemia was 3400 nM; in the assay with HL-60(TB) leukemia, 768 nM; in the assay on HOP-62 NSCLC, 3.33 µM; with HT29 colon, 1040 nM; in the assay with MDA-MB-231 breast it was 1150 nM; in the assay on NCI-H23 lung, 2240 nM. Also, the GI50 in the assay with NCI-H522 lung is 3690 nM; in the assay with PC-3 prostate, 3.5 µM; in the assay with SK-MEL-28 melanoma it was 1110 nM; in the assay on SNB-75 CNS, 5920 nM. The TGI in the assay with CCRF-CEM leukemia worked out at 42.7 µM; in the assay on HL-60(TB) leukemia, 3.58 µM; in the assay with HOP-62 NSCLC, 13.1 µM; with HT29 colon it was 15.5 µM; in the assay on MDA-MB-231 breast it was 3.1 µM; in the assay with NCI-H23 lung it was 13.7 µM. The TGI is 17.7 µM in the assay on NCI-H522 lung, 19 µM with PC-3 prostate, 9 µM with SK-MEL-28 melanoma and 19.8 µM in the assay with SNB-75 CNS.
As for `O=S1(=O)N(Cc2ccccc2)[C@@H](Cc2ccccc2)[C@H](O)[C@H](O)[C@H](Cc2ccccc2)N1Cc1ccccc1`, the GI50 with CCRF-CEM leukemia was 5960 nM; in the assay on HL-60(TB) leukemia it was 2970 nM; with HOP-62 NSCLC it was 3.71 µM; in the assay with HT29 colon it was 2630 nM; with MDA-MB-231 breast it was 2820 nM; in the assay on NCI-H23 lung, 3110 nM. Also, the GI50 was 847 nM with NCI-H522 lung, 3.48 µM with PC-3 prostate, 3350 nM in the assay with SK-MEL-28 melanoma and 2310 nM in the assay with SNB-75 CNS. For the same compound, the TGI is greater than 20 µM in the assay with CCRF-CEM leukemia; 8.72 µM in the assay with HL-60(TB) leukemia; 7.34 µM with HOP-62 NSCLC; 5.64 µM in the assay with HT29 colon; 6.39 µM in the assay on MDA-MB-231 breast; 6.71 µM with NCI-H23 lung. Moreover, the TGI in the assay on NCI-H522 lung came out at 4.79 µM; with PC-3 prostate it was 10.4 µM; with SK-MEL-28 melanoma, 6.9 µM; in the assay on SNB-75 CNS, 7.28 µM.
On to `CN(C)c1nc(=NCc2ccco2)ss1`, for which the TGI worked out at 33.8 µM in the assay with CCRF-CEM leukemia; 10.6 µM in the assay on HL-60(TB) leukemia; 62.8 µM in the assay on HOP-62 NSCLC; 20.4 µM in the assay with HT29 colon; 32.2 µM in the assay with MDA-MB-231 breast; 58 µM in the assay on NCI-H23 lung. The TGI in the assay with NCI-H522 lung came to 3.11 µM; in the assay with PC-3 prostate, 30.5 µM; in the assay on SK-MEL-28 melanoma, 46.4 µM; with SNB-75 CNS, 53.9 µM.
Consider `Cc1ncc(C(=O)Nc2ccc(CN3CCN(C)CC3)c(C(F)(F)F)c2)cc1C#Cc1ccc(N)nc1`, for which the GI50 in the assay on CCRF-CEM leukemia was 598 nM; in the assay on HL-60(TB) leukemia, 290 nM; with HOP-62 NSCLC it was 0.426 µM; with HT29 colon, 129 nM; with MDA-MB-231 breast, 158 nM; in the assay with NCI-H23 lung, 600 nM. The GI50 in the assay on NCI-H522 lung is 192 nM; with PC-3 prostate it was 0.72 µM; in the assay with SK-MEL-28 melanoma, 251 nM; in the assay with SNB-75 CNS, 434 nM. In addition, the TGI was found to be 12.3 µM with CCRF-CEM leukemia; 1.91 µM with HL-60(TB) leukemia; 2.6 µM in the assay on HOP-62 NSCLC; 1.16 µM in the assay with HT29 colon; 0.711 µM in the assay with MDA-MB-231 breast; 4.13 µM with NCI-H23 lung. Besides, the TGI in the assay with NCI-H522 lung is 1.75 µM; with PC-3 prostate it was 5.89 µM; in the assay with SK-MEL-28 melanoma, 1.3 µM; in the assay with SNB-75 CNS it was 1.1 µM.
On to `O=C(/C=C/c1ccc(O)c(O)c1)NCc1c[nH]c2ccccc12`, for which the GI50 is 48400 nM in the assay with CCRF-CEM leukemia; 70000 nM in the assay with HL-60(TB) leukemia; 44.7 µM in the assay with HOP-62 NSCLC; 47200 nM in the assay with HT29 colon; 75900 nM with MDA-MB-231 breast; 85800 nM in the assay on NCI-H23 lung. Besides, the GI50 was 44900 nM in the assay with NCI-H522 lung, 71.3 µM with PC-3 prostate, 58300 nM with SK-MEL-28 melanoma and 82400 nM in the assay on SNB-75 CNS. Besides, the TGI with CCRF-CEM leukemia, in the assay with HL-60(TB) leukemia, in the assay on HOP-62 NSCLC, in the assay on HT29 colon, in the assay on MDA-MB-231 breast and in the assay on NCI-H23 lung was greater than 100 µM in each case. Besides, the TGI with NCI-H522 lung, in the assay on PC-3 prostate, in the assay with SK-MEL-28 melanoma and in the assay with SNB-75 CNS was greater than 100 µM in each case.
Take `CCCn1cnc2c(SCC(=O)O)nc(N)nc21`: the TGI with CCRF-CEM leukemia, in the assay on HL-60(TB) leukemia, in the assay on HOP-62 NSCLC, in the assay on HT29 colon, in the assay on MDA-MB-231 breast and with NCI-H23 lung was greater than 100 µM throughout. Also, the TGI in the assay with NCI-H522 lung, with PC-3 prostate, with SK-MEL-28 melanoma and in the assay on SNB-75 CNS was greater than 100 µM each time.
